Experimental data from patent US6737383B1, “Herbicidal oxadiazolidines” (priority 1999, dated 2004).

Experiments:
bermuda-grass = assay: Test D bermudagrass; type: in vivo, Cynodon dactylon; conditions: Postemergence, 0 to 100 scale
common pursiane = assay: Test D common purslane; type: in vivo, Portulaca oleracea; conditions: Postemergence, 0 to 100 scale
common groundsel = assay: Test D common groundsel; type: in vivo, Senecio vulgaris; conditions: Postemergence, 0 to 100 scale
itchgrass = assay: Test D itchgrass; type: in vivo, Rottboellia exaltata; conditions: Postemergence, 0 to 100 scale
pitted morningglory = assay: Test D pitted morningglory; type: in vivo, Ipomoea lacunosa; conditions: Postemergence, 0 to 100 scale
Spanishneedles = assay: Test D Spanishneedles; type: in vivo, Bidens bipinnata; conditions: Postemergence, 0 to 100 scale
surinam grass = assay: Test D surinam grass; type: in vivo, Brachiaria decumbens; conditions: Postemergence, 0 to 100 scale
tall mallow = assay: Test D tall mallow; type: in vivo, Malva sylvestris; conditions: Postemergence, 0 to 100 scale
Green foxtail [1] = assay: Test D green foxtail; type: in vivo; conditions: Postemergence, 0 to 100 scale, 0 no injury, 100 complete control
Green foxtail [2] = assay: Test D green foxtail; type: in vivo; conditions: Postemergence, 0 to 100 scale, 0 no injury, 100 complete control; remark: listed apart in the source
Green foxtail [3] = assay: Test D green foxtail; type: in vivo; conditions: Postemergence, 0 to 100 scale, 0 no injury, 100 complete control; remark: listed apart in the source
[4] = Rate 16 g/ha, 0 no injury, 100 complete control
[5] = Rate 32 g/ha, 0 no injury, 100 complete control
[6] = Rate 64 g/ha, 0 no injury, 100 complete control
[7] = Rate 125 g/ha, 0 no injury, 100 complete control

In the case of CC(C)N(C(=O)n1oc(=O)n(C2CC2)c1=O)c1ccc(Cl)cc1 [Compound 241], the “Plant response rating, Bermudagrass” value (bermuda-grass; [4]) is reported as 0, the “Plant response rating, Bermudagrass” value (bermuda-grass; [5]) is reported as 30 and the “Plant response rating, Bermudagrass” value (bermuda-grass; [6]) is reported as 100. The “Plant response rating, Bermudagrass” value (bermuda-grass; [7]) was 100, the “Plant response rating, Bermudagrass” value (bermuda-grass; Rate 250 g/ha) was 100 and the “Plant response rating, C. purslane” value (common pursiane; [4]) was 0. For the same molecule, the “Plant response rating, C. purslane” value (common pursiane; [5]) was 0, the “Plant response rating, C. purslane” value (common pursiane; [6]) was 0 and the “Plant response rating, C. purslane” value (common pursiane; [7]) was 0. The “Plant response rating, C. purslane” value (common pursiane; Rate 250 g/ha) was 0, the “Plant response rating, Com. groundsel” value (common groundsel; [5]) was 0 and the “Plant response rating, Com. groundsel” value (common groundsel; [6]) was 0. For the same molecule, the “Plant response rating, Com. groundsel” value (common groundsel; [7]) was 100, the “Plant response rating, Com. groundsel” value (common groundsel; Rate 250 g/ha) was 100 and the “Plant response rating, Itchgrass” value (itchgrass; [4]) was 0. The “Plant response rating, Itchgrass” value (itchgrass; [5]) was 0, the “Plant response rating, Itchgrass” value (itchgrass; [6]) was 0 and the “Plant response rating, Itchgrass” value (itchgrass; [7]) was 100. The “Plant response rating, Itchgrass” value (itchgrass; Rate 250 g/ha) was 100, the “Plant response rating, P. morninglory” value (pitted morningglory; [4]) was 0 and the “Plant response rating, P. morninglory” value (pitted morningglory; [5]) was 0. For the same molecule, the “Plant response rating, P. morninglory” value (pitted morningglory; [6]) was 0, the “Plant response rating, P. morninglory” value (pitted morningglory; [7]) was 0 and the “Plant response rating, P. morninglory” value (pitted morningglory; Rate 250 g/ha) was 0. The “Plant response rating, Spanishneedles” value (Spanishneedles; [4]) was 0, the “Plant response rating, Spanishneedles” value (Spanishneedles; [5]) was 0 and the “Spanishneedles plant response rating” value (Spanishneedles; [6]) was 0. For the same molecule, the “Spanishneedles plant response rating” value (Spanishneedles; [7]) was 0, the “Plant response rating, Spanishneedles” value (Spanishneedles; Rate 250 g/ha) was 10 and the “Plant response rating, Surinam grass” value (surinam grass; [4]) was 0. The “Plant response rating, Surinam grass” value (surinam grass; [5]) was 0, the “Surinam grass plant response rating” value (surinam grass; [6]) was 60 and the “Surinam grass plant response rating” value (surinam grass; [7]) was 100. The “Plant response rating, Surinam grass” value (surinam grass; Rate 250 g/ha) was 100, the “Plant response rating, Tall Mallow” value (tall mallow; [4]) was 0 and the “Plant response rating, Tall Mallow” value (tall mallow; [5]) was 0. For the same molecule, the “Tall Mallow plant response rating” value (tall mallow; [6]) was 0, the “Tall Mallow plant response rating” value (tall mallow; [7]) was 10 and the “Plant response rating, Tall Mallow” value (tall mallow; Rate 250 g/ha) was 40. For the same molecule, the “Plant response rating, Green foxtail” value (Green foxtail [1]; Rate 64 g/ha) was 10, the “Plant response rating, Green foxtail” value (Green foxtail [1]; Rate 125 g/ha) was 100 and the “Plant response rating, Green foxtail” value (Green foxtail [2]; Rate 16 g/ha) was 0. The “Plant response rating, Green foxtail” value (Green foxtail [2]; Rate 32 g/ha) was 10, the “Green foxtail plant response rating” value (Green foxtail [3]; Rate 64 g/ha) was 10 and the “Green foxtail plant response rating” value (Green foxtail [3]; Rate 125 g/ha) was 100.
For CC(C)N(C(=O)n1oc(=O)n(C2CCC2)c1=O)c1ccccc1 [Compound 348], the “Plant response rating, Bermudagrass” value (bermuda-grass; [4]) was 0, the “Plant response rating, Bermudagrass” value (bermuda-grass; [5]) was 20 and the “Plant response rating, Bermudagrass” value (bermuda-grass; [6]) was 100. For the same molecule, the “Plant response rating, Bermudagrass” value (bermuda-grass; [7]) was 100, the “Plant response rating, Bermudagrass” value (bermuda-grass; Rate 250 g/ha) was 100 and the “Plant response rating, C. purslane” value (common pursiane; [4]) was 0. For the same molecule, the “Plant response rating, C. purslane” value (common pursiane; [5]) was 0, the “Plant response rating, C. purslane” value (common pursiane; [6]) was 0 and the “Plant response rating, C. purslane” value (common pursiane; [7]) was 0. For the same molecule, the “Plant response rating, C. purslane” value (common pursiane; Rate 250 g/ha) was 0, the “Plant response rating, Com. groundsel” value (common groundsel; [4]) was 30 and the “Plant response rating, Com. groundsel” value (common groundsel; [6]) was 50. The “Plant response rating, Com. groundsel” value (common groundsel; [7]) was 100, the “Plant response rating, Com. groundsel” value (common groundsel; Rate 250 g/ha) was 100 and the “Plant response rating, Itchgrass” value (itchgrass; [4]) was 0. The “Plant response rating, Itchgrass” value (itchgrass; [5]) was 0, the “Plant response rating, Itchgrass” value (itchgrass; [6]) was 0 and the “Plant response rating, Itchgrass” value (itchgrass; [7]) was 0. The “Plant response rating, Itchgrass” value (itchgrass; Rate 250 g/ha) was 100, the “Plant response rating, P. morninglory” value (pitted morningglory; [4]) was 0 and the “Plant response rating, P. morninglory” value (pitted morningglory; [5]) was 0. For the same molecule, the “Plant response rating, P. morninglory” value (pitted morningglory; [6]) was 0, the “Plant response rating, P. morninglory” value (pitted morningglory; [7]) was 0 and the “Plant response rating, P. morninglory” value (pitted morningglory; Rate 250 g/ha) was 0. For the same molecule, the “Plant response rating, Spanishneedles” value (Spanishneedles; [4]) was 0, the “Plant response rating, Spanishneedles” value (Spanishneedles; [5]) was 0 and the “Spanishneedles plant response rating” value (Spanishneedles; [6]) was 0. For the same molecule, the “Spanishneedles plant response rating” value (Spanishneedles; [7]) was 0, the “Plant response rating, Spanishneedles” value (Spanishneedles; Rate 250 g/ha) was 0 and the “Plant response rating, Surinam grass” value (surinam grass; [4]) was 0. For the same molecule, the “Plant response rating, Surinam grass” value (surinam grass; [5]) was 0, the “Surinam grass plant response rating” value (surinam grass; [6]) was 20 and the “Surinam grass plant response rating” value (surinam grass; [7]) was 80. The “Plant response rating, Surinam grass” value (surinam grass; Rate 250 g/ha) was 100, the “Plant response rating, Tall Mallow” value (tall mallow; [4]) was 0 and the “Plant response rating, Tall Mallow” value (tall mallow; [5]) was 0. The “Tall Mallow plant response rating” value (tall mallow; [6]) was 0, the “Tall Mallow plant response rating” value (tall mallow; [7]) was 20 and the “Plant response rating, Tall Mallow” value (tall mallow; Rate 250 g/ha) was 40. The “Plant response rating, Green foxtail” value (Green foxtail [1]; Rate 64 g/ha) was 100, the “Plant response rating, Green foxtail” value (Green foxtail [1]; Rate 125 g/ha) was 100 and the “Plant response rating, Green foxtail” value (Green foxtail [2]; Rate 16 g/ha) was 0. For the same molecule, the “Plant response rating, Green foxtail” value (Green foxtail [2]; Rate 32 g/ha) was 20, the “Green foxtail plant response rating” value (Green foxtail [3]; Rate 64 g/ha) was 100 and the “Green foxtail plant response rating” value (Green foxtail [3]; Rate 125 g/ha) was 100.
CC(C)N(C(=O)n1oc(=O)n(C2CCC2)c1=O)c1ccc(Cl)cc1 [Compound 349] was tested, and the “Plant response rating, Bermudagrass” value (bermuda-grass; [4]) was 0, the “Plant response rating, Bermudagrass” value (bermuda-grass; [5]) was 40 and the “Plant response rating, Bermudagrass” value (bermuda-grass; [6]) was 70. For the same molecule, the “Plant response rating, Bermudagrass” value (bermuda-grass; [7]) was 100, the “Plant response rating, Bermudagrass” value (bermuda-grass; Rate 250 g/ha) was 100 and the “Plant response rating, C. purslane” value (common pursiane; [4]) was 0. The “Plant response rating, C. purslane” value (common pursiane; [5]) was 0, the “Plant response rating, C. purslane” value (common pursiane; [6]) was 0 and the “Plant response rating, C. purslane” value (common pursiane; [7]) was 0. For the same molecule, the “Plant response rating, C. purslane” value (common pursiane; Rate 250 g/ha) was 0, the “Plant response rating, Com. groundsel” value (common groundsel; [7]) was 20 and the “Plant response rating, Com. groundsel” value (common groundsel; Rate 250 g/ha) was 50. The “Plant response rating, Itchgrass” value (itchgrass; [4]) was 0, the “Plant response rating, Itchgrass” value (itchgrass; [5]) was 0 and the “Plant response rating, Itchgrass” value (itchgrass; [6]) was 0. The “Plant response rating, Itchgrass” value (itchgrass; [7]) was 0, the “Plant response rating, Itchgrass” value (itchgrass; Rate 250 g/ha) was 0 and the “Plant response rating, P. morninglory” value (pitted morningglory; [4]) was 0. For the same molecule, the “Plant response rating, P. morninglory” value (pitted morningglory; [5]) was 0, the “Plant response rating, P. morninglory” value (pitted morningglory; [6]) was 0 and the “Plant response rating, P. morninglory” value (pitted morningglory; [7]) was 0. For the same molecule, the “Plant response rating, P. morninglory” value (pitted morningglory; Rate 250 g/ha) was 0, the “Plant response rating, Spanishneedles” value (Spanishneedles; [4]) was 0 and the “Plant response rating, Spanishneedles” value (Spanishneedles; [5]) was 0. The “Spanishneedles plant response rating” value (Spanishneedles; [6]) was 0, the “Spanishneedles plant response rating” value (Spanishneedles; [7]) was 0 and the “Plant response rating, Spanishneedles” value (Spanishneedles; Rate 250 g/ha) was 0. For the same molecule, the “Plant response rating, Surinam grass” value (surinam grass; [4]) was 0, the “Plant response rating, Surinam grass” value (surinam grass; [5]) was 0 and the “Surinam grass plant response rating” value (surinam grass; [6]) was 0. The “Surinam grass plant response rating” value (surinam grass; [7]) was 10, the “Plant response rating, Surinam grass” value (surinam grass; Rate 250 g/ha) was 60 and the “Plant response rating, Tall Mallow” value (tall mallow; [4]) was 0. For the same molecule, the “Plant response rating, Tall Mallow” value (tall mallow; [5]) was 0, the “Tall Mallow plant response rating” value (tall mallow; [6]) was 0 and the “Tall Mallow plant response rating” value (tall mallow; [7]) was 0. For the same molecule, the “Plant response rating, Tall Mallow” value (tall mallow; Rate 250 g/ha) was 0, the “Plant response rating, Green foxtail” value (Green foxtail [1]; Rate 64 g/ha) was 10 and the “Plant response rating, Green foxtail” value (Green foxtail [1]; Rate 125 g/ha) was 80. For the same molecule, the “Plant response rating, Green foxtail” value (Green foxtail [2]; Rate 16 g/ha) was 0, the “Plant response rating, Green foxtail” value (Green foxtail [2]; Rate 32 g/ha) was 0 and the “Green foxtail plant response rating” value (Green foxtail [3]; Rate 64 g/ha) was 10. The “Green foxtail plant response rating” value (Green foxtail [3]; Rate 125 g/ha) was 80.
